Results: PubChem BioAssay AID328 (DTP/NCI, 2004)
“And” between values parts separate entries of the source, which are not always exact repeats. Equal entries are not always repeated. Inconclusive results and toxic doses are left out.

Tested on: BDF1 mice, P388 leukemia ip, median survival T/C
Assay: NCI In Vivo Anticancer Drug Screen. Data for tumor model P388 Leukemia (intraperitoneal) in B6D2F1 (BDF1) mice
Details: endpoint: median survival time, higher = longer survival
Outline: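 Vehicle-dosed animals serve as the reference; survival of compound-dosed, tumour-implanted mice is divided by it.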

[1] = dose: 50.0 mg/kg/injection, schedule: Q01DX009 (ip), vehicle: Klucel (hydroxypropylcellulose) (HPC)
[2] = dose: 100.0 mg/kg/injection, schedule: Q01DX009 (ip), vehicle: Klucel (hydroxypropylcellulose) (HPC)
[3] = dose: 50.0 mg/kg/injection, schedule: Q04DX003 (ip), vehicle: saline with Tween-80
[4] = dose: 100.0 mg/kg/injection, schedule: Q04DX003 (ip), vehicle: saline with Tween-80
[5] = dose: 200.0 mg/kg/injection, schedule: Q04DX003 (ip), vehicle: saline with Tween-80
[6] = dose: 200.0 mg/kg/injection, schedule: Q04DX003 (ip), vehicle: saline sonified
[7] = dose: 100.0 mg/kg/injection, schedule: Q04DX003 (ip), vehicle: Klucel (hydroxypropylcellulose) (HPC)
[8] = dose: 200.0 mg/kg/injection, schedule: Q04DX003 (ip), vehicle: Klucel (hydroxypropylcellulose) (HPC)
[9] = dose: 400.0 mg/kg/injection, schedule: Q04DX003 (ip), vehicle: Klucel (hydroxypropylcellulose) (HPC)
[10] = dose: 100.0 mg/kg/injection, schedule: Q01DX009 (ip), vehicle: saline with Tween-80
[11] = dose: 200.0 mg/kg/injection, schedule: Q01DX009 (ip), vehicle: saline with Tween-80
[12] = dose: 12.5 mg/kg/injection, schedule: Q01DX009 (ip), vehicle: saline
[13] = dose: 25.0 mg/kg/injection, schedule: Q01DX009 (ip), vehicle: saline
[14] = dose: 200.0 mg/kg/injection, schedule: Q01DX009 (ip), vehicle: Klucel (hydroxypropylcellulose) (HPC)

Which T/C (dose: 12.5 mg/kg/injection, schedule: Q01DX009 (ip), vehicle: Klucel (hydroxypropylcellulose) (HPC)) does the source give for `COc1cc2c(ccc3c4cc(OC)c(OC)cc4c[n+](C)c23)cc1O` here?
Its T/C is 165 % of control.

And the T/C (dose: 25.0 mg/kg/injection, schedule: Q01DX009 (ip), vehicle: Klucel (hydroxypropylcellulose) (HPC))?
The T/C was 173 % of control.

And the T/C (dose: 25.0 mg/kg/injection, schedule: Q01DX010 (ip), vehicle: saline)?
The T/C was 190 % of control.

What about the T/C (dose: 40.0 mg/kg/injection, schedule: Q01DX009 (ip), vehicle: saline) of the same molecule?
Its T/C is 190 % of control.

And the T/C (dose: 40.0 mg/kg/injection, schedule: Q04DX003 (ip), vehicle: saline)?
The T/C was 190 % of control.

What about the T/C [1] of the same molecule?
The T/C was 219 % of control.

What about the T/C (dose: 50.0 mg/kg/injection, schedule: Q01DX010 (ip), vehicle: saline) of the same molecule?
Its T/C is 210 % of control.

And the T/C (dose: 80.0 mg/kg/injection, schedule: Q01DX009 (ip), vehicle: saline)?
Its T/C is 210 % of control.

And the T/C (dose: 80.0 mg/kg/injection, schedule: Q04DX003 (ip), vehicle: saline)?
The T/C was 180 % of control.

And the T/C [2]?
The T/C was 230 % of control.

What about the T/C (dose: 100.0 mg/kg/injection, schedule: Q01DX010 (ip), vehicle: saline) of the same molecule?
The T/C was 265 % of control.

What about the T/C (dose: 160.0 mg/kg/injection, schedule: Q01DX009 (ip), vehicle: saline) of the same molecule?
Its T/C is 270 % of control.

And the T/C (dose: 160.0 mg/kg/injection, schedule: Q04DX003 (ip), vehicle: saline)?
Its T/C is 215 % of control.

And the T/C (dose: 320.0 mg/kg/injection, schedule: Q01DX009 (ip), vehicle: saline)?
The T/C was 205 % of control.

What about the T/C (dose: 320.0 mg/kg/injection, schedule: Q04DX003 (ip), vehicle: saline) of the same molecule?
The T/C was 270 % of control.

With `O=[N+]([O-])c1ccc(N2CCN(CCO)CC2)c2nonc12` as the molecule, how does the T/C (dose: 15.0 mg/kg/injection, schedule: Q01DX009 (ip), vehicle: saline with Tween-80) read?
Its T/C is 100 % of control.

And the T/C (dose: 25.0 mg/kg/injection, schedule: Q04DX003 (ip), vehicle: saline with Tween-80)?
The T/C was 97 % of control.

What about the T/C (dose: 30.0 mg/kg/injection, schedule: Q01DX009 (ip), vehicle: saline with Tween-80) of the same molecule?
The T/C was 97 % of control.

What about the T/C [3] of the same molecule?
The T/C was 96 % of control.

What does the source list for `CCCNC(C)(C)C(SS)c1ccc(Cl)cc1` (configuration not stated)?
T/C [3]: 109 % of control; T/C [4]: 104 % of control; T/C [5]: 109 % of control

Which results are given for `COc1cc(C=Nc2ccc3c(c2)Cc2ccccc2-3)ccc1O`?
T/C (dose: 50.0 mg/kg/injection, schedule: Q04DX003 (ip), vehicle: saline sonified): 104 % of control; T/C [6]: 95 % of control

Which results are given for `CC(C)(Br)C(=O)c1ccc(-c2ccccc2)cc1`?
T/C (dose: 12.5 mg/kg/injection, schedule: Q01DX009 (ip), vehicle: water): 109 % of control; T/C (dose: 25.0 mg/kg/injection, schedule: Q01DX009 (ip), vehicle: water): 96 % of control; T/C (dose: 25.0 mg/kg/injection, schedule: Q04DX003 (ip), vehicle: water): 107 % of control; T/C (dose: 50.0 mg/kg/injection, schedule: Q01DX009 (ip), vehicle: water): 117 % of control; T/C (dose: 50.0 mg/kg/injection, schedule: Q04DX003 (ip), vehicle: water): 107 % of control; T/C (dose: 100.0 mg/kg/injection, schedule: Q01DX009 (ip), vehicle: water): 102 % of control; T/C [7]: 90 % of control; T/C (dose: 100.0 mg/kg/injection, schedule: Q04DX003 (ip), vehicle: water): 107 % of control; T/C (dose: 200.0 mg/kg/injection, schedule: Q01DX009 (ip), vehicle: water): 109 % of control; T/C [8]: 100 % of control; T/C (dose: 200.0 mg/kg/injection, schedule: Q04DX003 (ip), vehicle: water): 107 % of control; T/C (dose: 400.0 mg/kg/injection, schedule: Q01DX009 (ip), vehicle: water): 117 % of control; T/C [9]: 100 % of control; T/C (dose: 400.0 mg/kg/injection, schedule: Q04DX003 (ip), vehicle: water): 110 % of control

What does the source list for `COc1ccc(-c2c(C)c(C(=O)O)nc(-c3ccc4c(O)c(OC)c5c(c4n3)=NC(C)(C)N=5)c2N)c(O)c1OC`?
T/C (dose: 1.0 mg/kg/injection, schedule: Q01DX010 (ip), vehicle: other): 90 % of control; T/C (dose: 2.0 mg/kg/injection, schedule: Q01DX010 (ip), vehicle: other): 118 % of control; T/C (dose: 4.0 mg/kg/injection, schedule: Q01DX010 (ip), vehicle: other): 118 % of control; T/C (dose: 5.0 mg/kg/injection, schedule: Q01DX010 (ip), vehicle: water): 100 % of control; T/C (dose: 10.0 mg/kg/injection, schedule: Q01DX010 (ip), vehicle: water): 95 % of control

`C=C1CCN2CCCC12` (configuration not stated) was tested. Which T/C (dose: 20.0 mg/kg/injection, schedule: Q01DX010 (ip), vehicle: carboxymethylcellulose (CMC)) did it give?
The T/C was 110 % of control.

And the T/C (dose: 40.0 mg/kg/injection, schedule: Q01DX010 (ip), vehicle: carboxymethylcellulose (CMC))?
The T/C was 100 % of control.

And the T/C (dose: 80.0 mg/kg/injection, schedule: Q01DX010 (ip), vehicle: carboxymethylcellulose (CMC))?
The T/C was 110 % of control.

How did the T/C [10] turn out when `OCc1ccccc1F` was run?
Its T/C is 88 % of control.

What about the T/C [4] of the same molecule?
Its T/C is 100 % of control.

And the T/C [11]?
The T/C was 103 % of control.

What about the T/C [5] of the same molecule?
The T/C was 109 % of control.

And the T/C (dose: 400.0 mg/kg/injection, schedule: Q01DX009 (ip), vehicle: saline with Tween-80)?
Its T/C is 111 % of control.

Which T/C [12] does the source give for `CC([OH2+])CNCCN.CC([OH2+])CNCCN.O=[N+]([O-])[O-].[Cu+2]` (configuration not stated) here?
The T/C was 110 % of control.

And the T/C [13]?
The T/C was 113 % of control.

Which results are given for `O=C1CNC(=O)c2cc(N=Cc3cc(Br)ccc3O)ccc2N1`?
T/C (dose: 50.0 mg/kg/injection, schedule: Q01DX009 (ip), vehicle: saline with Tween-80): 99 % of control; T/C [10]: 89 % of control; T/C [11]: 100 % of control

For `C[C@]12CCC(=O)C=C1CC[C@@H]1C2=CC[C@@]2(C)[C@H]1CC[C@]2(C)O`, which T/C (dose: 0.78 mg/kg/injection, schedule: Q01DX009 (ip), vehicle: Klucel (hydroxypropylcellulose) (HPC)) is on record?
The T/C was 100 % of control.

What about the T/C (dose: 1.56 mg/kg/injection, schedule: Q01DX009 (ip), vehicle: Klucel (hydroxypropylcellulose) (HPC)) of the same molecule?
Its T/C is 90 % of control.

What about the T/C (dose: 3.12 mg/kg/injection, schedule: Q01DX009 (ip), vehicle: Klucel (hydroxypropylcellulose) (HPC)) of the same molecule?
Its T/C is 86 % of control.

And the T/C [1]?
Its T/C is 87 % of control.

What about the T/C [7] of the same molecule?
Its T/C is 109 % of control.

And the T/C [14]?
Its T/C is 87 % of control.

What about the T/C [8] of the same molecule?
Its T/C is 104 % of control.

How did the T/C (dose: 6.25 mg/kg/injection, schedule: Q01DX009 (ip), vehicle: saline) turn out when `Nc1cc(I)c2cccnc2c1O` was run?
Its T/C is 93 % of control and 115 % of control.

And the T/C [12]?
Its T/C is 90 % of control and 99 % of control.

What about the T/C [13] of the same molecule?
The T/C was 123 % of control.

And the T/C (dose: 50.0 mg/kg/injection, schedule: Q01DX009 (ip), vehicle: saline)?
Its T/C is 117 % of control.

What about the T/C (dose: 100.0 mg/kg/injection, schedule: Q01DX009 (ip), vehicle: saline) of the same molecule?
Its T/C is 124 % of control.

How did the T/C [2] turn out when `O=C(c1ccccc1)c1c2ccccc2c(-c2ccccc2)c2ccccc12` was run?
The T/C was 100 % of control.

What about the T/C [7] of the same molecule?
The T/C was 91 % of control.

What about the T/C [14] of the same molecule?
The T/C was 100 % of control.

What about the T/C [8] of the same molecule?
Its T/C is 87 % of control.

What about the T/C (dose: 400.0 mg/kg/injection, schedule: Q01DX009 (ip), vehicle: Klucel (hydroxypropylcellulose) (HPC)) of the same molecule?
The T/C was 111 % of control.

And the T/C [9]?
Its T/C is 95 % of control.

`Cn1c(-c2ccccc2)c(C(=O)O)c(C(=O)O)c1-c1ccccc1` was tested. Which T/C [1] did it give?
Its T/C is 95 % of control.

And the T/C [2]?
Its T/C is 90 % of control.

And the T/C [14]?
The T/C was 96 % of control.

What does the source list for `CC(=O)Nc1ccc(/C=N/Nc2ccc([N+](=O)[O-])cn2)cc1`?
T/C (dose: 62.5 mg/kg/injection, schedule: Q01DX010 (ip), vehicle: saline): 95 % of control; T/C (dose: 100.0 mg/kg/injection, schedule: Q04DX003 (ip), vehicle: saline sonified): 105 % of control; T/C (dose: 125.0 mg/kg/injection, schedule: Q01DX010 (ip), vehicle: saline): 90 % of control; T/C [6]: 105 % of control; T/C (dose: 250.0 mg/kg/injection, schedule: Q01DX010 (ip), vehicle: saline): 100 % of control; T/C (dose: 400.0 mg/kg/injection, schedule: Q04DX003 (ip), vehicle: saline sonified): 100 % of control

With `C#CCOCCBr` as the molecule, how does the T/C (dose: 22.0 mg/kg/injection, schedule: Q01DX009 (ip), vehicle: saline) read?
The T/C was 122 % of control.

Which T/C (dose: 3.13 mg/kg/injection, schedule: Q01DX009 (oral), vehicle: saline) does the source give for `CC(=O)OC1C2(CC3N4C(=O)C5(CO)SSC4(CC31O)C(=O)N5C)OC(C)C(C)(C)C2=O` (configuration not stated) here?
The T/C was 95 % of control.

And the T/C (dose: 6.25 mg/kg/injection, schedule: Q01DX009 (oral), vehicle: saline)?
Its T/C is 100 % of control.

And the T/C (dose: 12.5 mg/kg/injection, schedule: Q01DX009 (oral), vehicle: saline)?
Its T/C is 103 % of control.
